Experimental data: patent US11629192B2, “Methods and pharmaceutical compositions for the treatment of diseases mediated by the NRP-1/OBR complex signaling pathway” (INSERM (Institut National de la Sante et de la Recherche …, priority 2014, dated 2023)
“Also recorded” adds a separate entry of the source. Values belong to the molecule of their own block, whether it stands above or below them.

Experiments:
P-NRP-1 = test: NRP-1 (P-NRP-1) and OBR phosphorylation in MDA-MB-231, immunostaining / coimmunoprecipitation; format: cell-based, human; details: for NRP-1 and OBR phosphorylation: inhibition of CK2 by chemical compounds
Source text: Beside the modulation of the NRP-1/OBR complex formation by Leptin and OBR phosphorylation, we postulated a possible phosphorylation of NRP-1 that can regulate the translocation of the complex to the nucleus. Two putative phosphorylation sites of NRP-1 have been reported with no more investigation. The first one at the extracellular B domain as reported by Shintani et al in 2009 with no antibody available and the second one at the Threonine 916 located in the cytoplasmic domain as it was reported by Kyle et al in 2011. Since a specific antibody against P-NRP-1 at the T916 was available, we investigated by coimmunoprecipitation the detection of P-NRP-1 in MDA-MB-231 after serum starvation and stimulation by Leptin (10 nM). […] To confirm this phosphorylation state, we investigated the possible implication of a Serine/threonine Kinase CK2 using one of its first chemical inhibitor (DRB). In serum starved condition, P-NRP-1 was detected as polarized spot in the cytoplasm and the nucleus of MDA-MB-231. […] The inhibition was specific since, in stimulated condition combined with DMSO at the same dilution of DRB, we were able to observe a diffuse nuclear P-NRP-1 staining.

NRP-1/OBR complex [1] = test: NRP-1/OBR complex detection by Duolink Proximity Ligation Assay in MDA-MB-231 cells; format: cell-based, human; details: for formation and nuclear translocation of the NRP-1/OBR complex: MDA-MB-231 stimulated with Leptin (10 nM), CK2 inhibitor treatment
Source text: FIG. 2A-E. NRP-1/OBR complex is dependent of the activity of Protein-kinase CK2: NRP-1 and OBR are both a substrate of the holoenzyme CK2: In vitro phosphorylation of the recombinant full length NRP-1 (A) and the length OBR (B) indicate that the CK2β subunit is indispensable for the CK2 activity. C. Detection of the NRP-1 and CK2β subunit interaction: By using the PLA technology, the in vitro data showing the implication of CK2β subunit in the phosphorylation of NRP-1 by CK2 are in part confirmed in MDA-MB231 cells by the detection of CK2β interaction with NRP-1 as indicated by the duolink (white dot). […] E. inhibition of the NRP-1/OBR by the simultaneous CK2α and CK2α′ expression silencing using siRNA that confirms the CK2 implication In the NRP-1/OBR complex formation and nuclear localization.
To confirm a direct association of NRP-1 and Leptin in breast cancer cell migration, we investigated the NRP-1 and OBR interaction by using proximity ligation assay technology (Duolink) in MDA-MB-231 and in T47D-NRP-1. Since OBR is a member of the class I cytokine receptor family, we asked the question if the formation of the complex NRP-1/OBR can or not be modulated by Leptin. This question was investigated endogenously in MDA-MB-231 or by transient transfection of T47D either by NRP-1 or by NRP-1/OBR or OBR alone. After 24 h of transfection, cells were serum starved for 16 h then stimulated with Leptin (10 nM). After 3 h, the stimulation was stopped by removing the medium, cells was first washed then fixed and NRP-1/OBR complex formation was analyzed by Duolink in situ Proximity Ligation Assay (PLA) and by confocal microscopy detection. Co-localization was analyzed using JACoP (ImageJ; National Institutes of Health, Bethesda, Md.) software. Co-localization between molecules was indicated by a positive Pearson coefficient (r). First, the expression of NRP-1 in transfected T47D was confirmed by RT-PCR. NRP-1 forms a complex with endogenous OBR as it is shown by the Duolink detection as red dot in cells transfected with pcDNA3-NRP-1. The Duolink signal increased in the T47D co-transfected with NRP-1 and OBR. The Duolink signals in T47D transfected with either the empty vector pcDNA3 or with the OBR expressing vector were similar. The same results are observed in MDA-MB-231. […] By using subcellular protein fractionation kit, NRP-1 and OBR localization in cytoplasmic (C), membrane (M), in the total nuclear extract (N) or in soluble nuclear (SN) and chromatin bound fractions (CB) was analyzed by western blotting either in total lysate or after coimmunoprecipitation. The purity of fraction was assessed by the detection of specific proteins of each fraction such as Hsp90 for the C fraction, SP1 and HDAC2 for the SN and CB fractions and specifically the Calreticulin for endoplasmic reticulum (ER) in order to detect any contamination by the ER membrane fraction in the nuclear fractions. As suspected, OBR was coimmunoprecipitated with NRP-1 in the cytoplasmic (C) and in the nuclear fraction (N) of MDA-MB-231 but not in T47D. As well as Phosphorylated OBR (P-OBR), NRP-1 was detected in cytoplasmic fraction and in nuclear fractions SN and CB of 16 h serum starved MDA-MB-231 and stimulated with 10 nM of Leptin during 3 h at 37° C. The P-OBR and NRP-1 coimmunoprecipitated in the nuclear fractions, increasing with Leptin stimulation as observed by confocal microscopy.
As attempted, NRP-1/OBR complex was detected by confocal microscopy after by Duolink in situ Proximity Ligation Assay (PLA) in MDA-MB-231 stimulated with Leptin (10 nM). This detection was also observed in MDA-MB-231-shGFP but very less in MDA-MB-231-shNRP-1 confirming NRP-1 association with OBR.

NRP-1/OBR complex [2] = test: NRP-1/OBR complex by PLA in skin fibroblast of healthy donor and anorexic patient; format: cell-based, human; details: for NRP-1/OBR complex formation: skin fibroblasts of healthy donor and anorexic patient, treated during 4 hours
Method: FIG. 3A-B. NRP1/OBR complex formation inhibited by two alosteric inhibitors of Protein-kinase CK2 in skin fibroblast of healthy donor (A) and anorexic patient (B). The NRP-1/OBR complex (Red dot) is detected by de Proximity Ligation assay technology (PLA or Ouolink). Cells were grown in DMEM plus 20% of fetal bovine serum+Sodium pyruvate+LGiutamate and penicillin and streptomycin. Cells were treated or not with D3.1 or M4 CK2 inhibitor during 4 hours. Cells were washed with PBS1X and fixed with iced acetone and rehydrated with PBS before blockage and staining with a Goat ant-Human leptin and Rabbit anti-Neuropilin-1 and Mouse anti-Leptin receptor OBR. Leptin was detected using a donkey and Goat Alexa 488 (Green) and NRP-1 and OBR with anti-Rabbit-PLA minus and antimouse-PLA plus as described in the link indicated above. The NRP-1/OBR complex is inhibited by D3.1 and M4 treatment.

[3] = tested on: OBR and STAT3 phosphorylation; test: OBR and STAT3 phosphorylation in cytoplasmic and nuclear fractions; format: cell-based
Source text: Since both NRP-1/OBR complex formation and NRP-1 phosphorylation were abolished by CK2 inhibition, we supposed that OBR signaling pathway could be also affected by CK2 inhibition.

MDA-MB-231 cells = test: MDA-MB-231 cell migration / transmigration through insert; format: cell-based, human; details: 10 μg/ml of Bevacizumab
Source text: (§1) FIG. 5. NRP-1, OBR and leptin interactions confirmation using a Bio-Layer Interferometry (BLI) technology (fortebio.com/bli-technology.html): A-Leptin (OB) interaction to OBR is used as a positive control. Human neuropilin-1 (hNRP-1) interact with human OBR with a high affinity and specifically with human leptin (hOB) but not with murine leptin (mOB). VEGF165 binding to hNRP-1 is used as a positive control. B-Leptin and Avastin association increases MDA-MB231 cells transmigration through […] pore Insert. Avastin treatment may prevent a negative feedback control by VEGF of the pro-angiogenic signaling pathway of Leptin. VEGF binds to OBR which confirms our hypothesis that should be more investigated.
First MBA-MB-231 and T47D breast cancer cells line were selected for their high and undetectable NRP-1 expression respectively and the expression of Leptin receptor (OBR). In order to investigate NRP-1 and Leptin association in breast cancer cell line migration, we proceeded to NRP-1 expression silencing in MDA-MB-231 using either siRNA or shRNA approaches or NRP-1 overexpression in T47D. […] In contrast Leptin induced MDA-MB-231 migration that was decreased in siNRP-1 conditions. The in vitro data were confirmed in vivo by MDA-MB-231 and T47D xenografts in Nude mice. Modulation of NRP-1 expression either by shRNA silencing in MDA-MB-231 or by overexpression in T47D induced an increase of proliferation and a decrease of lymph node infiltration by MDA-MB-231-shNRP-1 and a decrease of proliferation and an increase of lymph node infiltration by T47D-NRP-1-RFP in mice treated with Leptin.
Leptin induced in vitro MDA-MB-231 migration that was decreased by NRP-1 repression using siRNA. Lel Xu et al have reported a direct evidence of NRP-1 up-regulation in tumors treated by anti-VEGF (Bevacizumab). […] This observation can be a first explanation of breast cancer therapy failure (increase of Progression survival while decreasing overall survival) by Bevacizumad and that was revoked by the FDA (Food and Drugs Administration, US).

[4] = molecular target: Human neuropilin-1 (hNRP-1) (Homo sapiens, UniProt O14786); test: Bio-Layer Interferometry (BLI) interaction with hNRP-1; format: binding
Source text: as §1

Molecule: O=C(O)c1ccc2c(c1)nc(Nc1cccc(Cl)c1)c1ccncc12 [CX4945]
NRP-1 and OBR phosphorylation (P-NRP-1): prevented
NRP-1/OBR complex detection by PLA and its nuclear localization (NRP-1/OBR complex [1]; MDA-MB231, CX4945 (504) during 4 h, leptin stimulation (10 nM)): decrease in NRP-1/OBR complex detection by PLA (red dot) and its nuclear localization
formation and nuclear translocation of the NRP-1/OBR complex (NRP-1/OBR complex [1]): prevented; also recorded: the same results obtained with TBB and DRB inhibitors

Molecule: O=C(O)c1cccc(Nc2nc(-c3cccc([N+](=O)[O-])c3)cs2)c1 [D3.1]
NRP-1/OBR complex formation (NRP-1/OBR complex [2]): inhibited
efficiency of NRP-1/OBR complex inhibition, D3.1 compared with M4 (NRP-1/OBR complex [2]; skin fibroblasts, 4 hours): seems more efficient

Molecule: OC[C@H]1O[C@@H](n2cnc3cc(Cl)c(Cl)cc32)[C@H](O)[C@@H]1O [DRB, 5,6-dichloro-1-P-D-ribofuranosylbenzimidazole]
P-NRP-1 staining (diffuse nuclear staining and polarized spot) (P-NRP-1; Leptin-stimulated (10 nM) MDA-MB-231, DRB treatment (5004)): inhibition of the diffuse nuclear P-NRP-1 staining but also to the decrease of P-NRP-1 polarized spot
NRP-1 and OBR phosphorylation (P-NRP-1): prevented
formation and nuclear translocation of the NRP-1/OBR complex (NRP-1/OBR complex [1]): prevented
formation and nuclear translocation of the NRP-1/OBR complex (NRP-1/OBR complex [1]; listed as DBB): decrease of NRP-1/OBR complex formation

Molecule: O=[N+]([O-])c1ccc2c(/N=N/c3c(O)ccc4ccccc34)c(O)cc(S(=O)(=O)O)c2c1 [M4, reference compound]
NRP-1/OBR complex formation (NRP-1/OBR complex [2]): inhibited

Molecule: Brc1c(Br)c(Br)c2[nH]nnc2c1Br [TBB, 4,5,6,7-tetrabromobenzotriazole]
NRP-1 and OBR phosphorylation (P-NRP-1): prevented
formation and nuclear translocation of the NRP-1/OBR complex (NRP-1/OBR complex [1]): prevented; also recorded: decrease of NRP-1/OBR complex formation
Leptin induced OBR and STAT3 phosphorylation increase, effect of inhibitor [3]: inhibited by TBB treatment in a dose dependent manner

Molecule: CCC(=C/[C@H](C)C/C=C/C(C)=C/[C@@H](C)C(=O)[C@@H](C)[C@H](O)[C@@H](C)C/C(C)=C/C(=O)O)/C=C/[C@@H]1OC(=O)C=C[C@@H]1C [leptomycin B]
NRP-1/OBR complex detection by Duolink in the nucleus (NRP-1/OBR complex [1]; MDA-MB-231 co-treated with Leptin and leptomycin B vs Leptin alone): increased

Molecule: Bevacizumab: anti-VEGF antibody (rhuMab VEGF, Avastin) [reference compound]
MDA-MB-231 migration (MDA-MB-231 cells): induced

interaction with hNRP-1 [4]: not
B1: mOB: murine leptin (protein, UniProt P41160 22-167, looked up)
Leptin: VPIQKVQDDTKTLIKTIVTRINDISHTQSVSAKQRVTGLDFIPGLHPILSLSKMDQTLAVYQQVLTSLPSQNVLQIANDLENLRDLLHLLAFSKSCSLPQTSGLQKPESLDGVLEASLYSTEVVALSRLQGSLQDILQQLDVSPEC
